Results: article PMC13538172, “Zonisamide nanodiamonds for brain targeting: A comprehensive study utilising in silico, in vitro, in vivo, and molecular investigation for successful nose-to-brain delivery for epilepsy management” (Drug Delivery and Translational Research, 2025)
Several values for one entry are separate records, joined by “and”; a condition that tells them apart may be missing. Equal entries are not always repeated.

Assay: Brain uptake, biodistribution and pharmacokinetics of 99mTc-radiolabelled ZNS in mice
Type: in vivo, male Swiss albino mice
Conditions: for Cmax (%ID/g), blood / Cmax (%ID/g), brain: n = 6
Method: Then, 100 μL of freshly eluted ^99mTc-pertechnetate; 99mTcO4- (200 MBq) was added to the above mixture, and the reaction mixture was vigorously shaken for 15 minutes. Radiochromatographic analysis was developed using the ascending paper chromatography (PC) technique to monitor the radiochemical purity of the ^99mTc-labelled compound using two distinct mobile phases; acetone was used to detect free pertechnetate, which migrated to Rf = 1, while the other component remained at Rf = 0 and a second mobile phase, comprising NH4OH, C2H5OH, and H2O (1:2:5), was used to determine the reduced hydrolyzed (R-H) 99mTc-colloid, which remained at Rf = 0, whereas ^99mTc-labelled compound and free pertechnetate migrated to Rf = 1 [7, 47]. Two drops of the reaction product and free 99mTcO4 were placed on two strips of Whatman PC on the origin line, 2 cm far from the base, to be developed by developing solvents. The experiments were conducted in triplicate to ensure the reproducibility and reliability of the results. As the developing process was terminated, the strip was dried, trimmed into 1 cm size pieces, and counted using the sodium iodide (NaI) γ-ray scintillation counter (A good-type NaI scintillation γ-Counter model scalar rate meter SR7 (Nuclear Enterprises Ltd., USA). The radiochemical yield percent of ^99mTc–ZNS was calculated using Eq. (3)3 %Radiochemicalyield=100-%Free99mTc-%colloid99mTc
The experiment protocol was approved by the University of October for Modern Sciences and Arts (MSA) ethical committee (Pt2/Ec2/2022PD), where the principles of the Declaration of Helsinki were followed. The mice were maintained in cabins of a size that suits groups of five at room temperature with a 12 h light/dark cycle and accessibility to food and water ad libitum. The mice were divided into four groups. Mice in group 1 served as a control and received no treatments. Mice in group 2 were given ZNS orally using an oral gavage (100 μL). Mice in group 3 were injected intranasally with ^99mTc–ND-ZNS complex in each nostril (100 μL) with the help of a micropipette attached with a low-density polyethene tube having 0.1 mm internal diameter at the delivery site. Mice in group 4 were injected intranasally free ^99mTc–-ZNS similarly. The mice were held from the back in a slanted position during nasal administration of the formulations. Next, mice were anesthetized by chloroform at 5, 15, 30, 60, 120 min post-injection (n=6 mice/time point). Samples of fresh blood and different organs were collected, washed twice using saline solution, made free from adhering tissue/fluid, and weighed. The radioactivity in each tissue/organ was measured using a shielded well-type gamma scintillation counter. The radiopharmaceutical uptake per gram in each tissue/organ was calculated as a fraction of the administered dose. Percent injected dose per gram organ and body fluid (mean %ID per gram organ and body fluid ± SD) in a population of six mice were calculated, and the significance level was set at […].
Drug concentrations in plasma and brain were investigated based on the measured radioactivity as previously discussed. Blood samples were collected at 5, 15, 30, 60, and 120 min post-injection (n=6 mice/time interval). Plasma and brain pharmacokinetic parameters were calculated by non-compartmental analysis using the Microsoft Excel Pharmacokinetics add-on. The rate of drug absorption was estimated through maximum plasma/brain concentration (Cmax), time for maximum plasma/brain concentration (Tmax), the extent of drug absorption via the area under the curve from zero to time (AUC0-t), and the area under the curve from zero to infinity (AUC 0-∞). The data in the form of mean values (± SD) of three determinations were statistically analyzed by applying one-way ANOVA using Minitab 17 software. Data was expressed as mean±S.D and analyzed by ANOVA followed by Tukey's test for multiple comparisons. Differences were considered significant when p was less than 0.05. […]

tissue distribution of ZNS (brain, liver, kidney, stomach, lungs) (5-120 min, Fig. 6, result in words): minimal distribution in the brain
Brain/Blood Ratio (AUC Brain/AUC Blood) (intranasal): 0.24
LogBB at 15 min (intranasal): −0.55±0.06
LogBB at 15 min (intranasal, listed as free ZNS): −0.556
LogBB at 120 min (intranasal): −0.477
AUC(0-120min), blood (intranasal): 125.25 ± 21.3 %ID/g.min
Tmax (min), blood (intranasal): 15 min
Cmax (%ID/g), blood (intranasal): 1.8 ± 0.7 %ID/g
AUC(0-120min), brain (intranasal): 31 ± 9.6 %ID/g.min
Tmax (min), brain (intranasal): 15 min
Cmax (%ID/g), brain (intranasal): 0.5 ± 0.2 %ID/g
LogBB at 15 min (oral): −0.865
LogBB at 120 min (oral): −1.301
AUC(0-120min), blood (oral): 77.6 ± 15.3 %ID/g.min
Tmax (min), blood (oral): 30 min
Cmax (%ID/g), blood (oral): 1.4 ± 0.07 %ID/g
AUC(0-120min), brain (oral): 7.1 ± 3.1 %ID/g.min
Tmax (min), brain (oral): 15 min
Cmax (%ID/g), brain (oral): 0.2 ± 0.02 %ID/g
Brain/Blood Ratio (AUC Brain/AUC Blood) (oral, listed as free ZNS): 0.09 and 0.091
Structure (SMILES): NS(=O)(=O)Cc1noc2ccccc12 [ZNS, Zonisamide]
